Experimental data: patent US9249147B2, “Tyrosine kinase inhibitors” (CHEMBRIDGE CORPORATION, priority 2008, dated 2016)
pIC50: −log10 of the molar value.

Legend:
Type in all cases: biochemical
IRK = target: T1, IRK (Homo sapiens, UniProt P06213); experiment: IRK (insulin receptor kinase) assay; conditions: Table 1; read-out: IRK IC50
T1 construct: 6×His- or GST-tagged kinase domain fragments of the corresponding RTKs expressed in baculovirus system; host or cells: baculovirus system
Experimental: (§1) To determine inhibition of several tyrosine kinases, such as IGF1R, InsR, Alk, TrkA and Jak2, kinase assays are conducted using either Kinase-Glo (Promega) or AlphaScreen (PerkinElmer) kinase assay platforms. The Kinase-Glo Luminescent Kinase Assay is a homogeneous method for measuring kinase activity by determining the amount of ATP remaining after a kinase reaction. The luminescent signal is proportional to the amount of ATP and inversely proportional to the amount of kinase activity. Tyrosine kinase PT66 AlphaScreen Assay is a high-sensitivity homogeneous, anti-phosphotyrosine antibody-mediated luminescent proximity method measuring incorporation of phosphate in synthetic poly(Glu-Tyr) substrate. The kinase preparations used consist of purified recombinant, 6×His- or GST-tagged kinase domain fragments of the corresponding RTKs expressed in baculovirus system.
(§2) Compounds with a range of concentrations 40 μM, 20 μM, 10 μM, 5 μM, 2.5 μM, 1.25 μM, 0.625 μM, 0.3125 μM, 0.15625 μM and 0.078125 μM were incubated with NPM-ALK, which was produced in insect cells as a 6×HIS-tagged fusion protein and purified using nickel-charged resin chromatography, for 30 minutes at RT in the presence of 10 μM ATP and 7.0 ng biotinylated poly-GT. A 1:1 mixture of […] and donor beads was then added to the reaction and incubated for an additional 60 minutes at RT. The assay was conducted on a MultiPROBE liquid handling workstation (PerkinElmer) in a 384-well plate format with a total reaction volume of 40 μL per well. Working stocks of all compounds were dissolved in 100% DMSO and serial dilutions of the compounds were performed using kinase buffer (50 mM Tris-HCl (pH 7.5), 5 mM MgCl2, 5 mM MnCl2, 2 mM DTT (added freshly before use), 0.01% Tween-20) containing 5% DMSO. […] Data were collected as optical readings at 520-680 nm on a Fusion™ microplate analyzer (PerkinElmer), and IC50 and Ki values calculated using PRISM3.0 software (GraphPad Software, Inc., San Diego, Calif.). The same assay was also used with minor modifications to assess the IC50 and Ki values for selected compounds against five other tyrosine kinases (IRK, IGF1R, Flt3, Abl, Src), all of which were purchased from commercial vendors. PolyGT-Biotin was bought from CIS Biointernational Cat. #61GT0BLD; ATP—from Sigma Cat. # A7699; sodium orthovanadate—from Sigma Cat. #S-6508; phosphotyrosine (PT66) assay kit from PerkinElmer Cat. #6760602M; automated workstation tips (20 μL): PerkinElmer Cat. #6000657; and OptiPlate-384 (white)—from PerkinElmer Cat. #6007299.

ALK = ALK (Homo sapiens, UniProt Q9UM73); experiment: ALK kinase assay (Kinase-Glo / AlphaScreen, purified NPM-ALK); parameters: fused to the complete intracytoplasmic portion of ALK containing the functional tyrosine kinase domain; 6xHis; made in house; host or cells: insect cells; the other entry of the earlier key: NPM1 (P06748, Nucleophosmin); conditions: Table 1; read-out: ALK IC50
IGF1R = target: T2, IGF1R (Homo sapiens, UniProt P08069); experiment: IGF1R kinase assay; conditions: Table 1; read-out: IGF1R IC50
T2 construct: 6×His- or GST-tagged kinase domain fragments of the corresponding RTKs expressed in baculovirus system; host or cells: baculovirus system
Experimental: as §1, §2

T2 sequence (P08069 999-1274 limits assumed): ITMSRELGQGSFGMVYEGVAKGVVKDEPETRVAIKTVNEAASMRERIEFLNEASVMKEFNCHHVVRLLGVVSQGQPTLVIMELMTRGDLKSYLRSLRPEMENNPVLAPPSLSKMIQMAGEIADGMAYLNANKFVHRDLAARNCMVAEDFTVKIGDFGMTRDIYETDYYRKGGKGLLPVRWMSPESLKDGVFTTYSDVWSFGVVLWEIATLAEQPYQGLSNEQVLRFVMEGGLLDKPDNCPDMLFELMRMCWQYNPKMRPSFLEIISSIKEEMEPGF
Chain of ALK (Q9UM73 with tags, fused parts or gaps): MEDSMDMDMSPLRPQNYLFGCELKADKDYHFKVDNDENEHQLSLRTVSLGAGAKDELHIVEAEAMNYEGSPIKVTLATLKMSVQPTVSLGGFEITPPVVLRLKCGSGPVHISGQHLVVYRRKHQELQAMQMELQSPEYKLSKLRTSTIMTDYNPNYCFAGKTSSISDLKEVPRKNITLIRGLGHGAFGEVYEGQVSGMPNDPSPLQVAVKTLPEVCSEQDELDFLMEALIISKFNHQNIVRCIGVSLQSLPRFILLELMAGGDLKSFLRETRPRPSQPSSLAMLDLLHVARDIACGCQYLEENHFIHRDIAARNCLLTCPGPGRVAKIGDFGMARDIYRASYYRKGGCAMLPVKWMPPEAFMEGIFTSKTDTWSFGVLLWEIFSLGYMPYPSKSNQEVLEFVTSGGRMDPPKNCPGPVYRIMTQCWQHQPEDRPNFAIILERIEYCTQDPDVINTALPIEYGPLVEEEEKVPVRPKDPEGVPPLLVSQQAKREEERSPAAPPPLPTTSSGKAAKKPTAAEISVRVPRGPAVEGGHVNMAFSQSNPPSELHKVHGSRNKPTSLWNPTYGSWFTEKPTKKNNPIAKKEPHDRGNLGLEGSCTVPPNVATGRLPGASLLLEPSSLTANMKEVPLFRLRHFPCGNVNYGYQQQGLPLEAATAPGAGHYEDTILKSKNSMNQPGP
T1 sequence (P06213 1023-1298 limits assumed): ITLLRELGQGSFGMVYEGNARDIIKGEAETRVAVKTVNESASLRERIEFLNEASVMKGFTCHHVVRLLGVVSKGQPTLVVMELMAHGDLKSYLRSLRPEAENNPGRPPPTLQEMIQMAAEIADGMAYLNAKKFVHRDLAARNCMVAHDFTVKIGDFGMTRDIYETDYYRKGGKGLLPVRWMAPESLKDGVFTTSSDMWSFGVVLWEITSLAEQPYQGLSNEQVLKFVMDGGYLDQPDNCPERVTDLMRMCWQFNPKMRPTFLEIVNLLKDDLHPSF

Row | pIC50 (IRK) | pIC50 (ALK) | pIC50 (IGF1R) | SMILES
1 | < 6.00 | 6.60 to 7.00 | 6.60 to 7.00 | Cc1ccc(F)cc1C[C@H](C)Nc1cc[nH]c(=O)c1-c1nc2cc3c(cc2[nH]1)C(=O)N(CCN(C)C)C3=O
2 | 6.00 to 6.60 | > 8.00 | 6.60 to 7.00 | C[C@@H](Cc1cc(F)cc(F)c1F)Nc1cc[nH]c(=O)c1-c1nc2cc3c(cc2[nH]1)CN(CCN(C)C)C3=O [drawing 325]
3 | 6.00 to 6.60 | 7.00 to 8.00 | 6.60 to 7.00 | COc1ccc(F)cc1C[C@H](C)Nc1cc[nH]c(=O)c1-c1nc2cc3c(cc2[nH]1)CN(CCN(C)C)C3=O
4 | 6.00 to 6.60 | > 8.00 | < 6.00 | C[C@@H](Cc1c(F)c(F)cc(F)c1F)Nc1cc[nH]c(=O)c1-c1nc2cc3c(cc2[nH]1)CN(CCN1CCCC1)C3=O [drawing 345]
5 | 6.00 to 6.60 | 7.00 to 8.00 | < 6.00 | CCc1ccccc1C[C@H](C)Nc1cc[nH]c(=O)c1-c1nc2cc3c(cc2[nH]1)CN(CCN1CCCC1)C3=O
6 | < 6.00 | 6.60 to 7.00 | 6.60 to 7.00 | COc1ccc(F)cc1C[C@H](C)Nc1cc[nH]c(=O)c1-c1nc2cc3c(cc2[nH]1)CN(CCN1CCOCC1)C3=O
7 | 6.60 to 7.00 | 7.00 to 8.00 | 6.00 to 6.60 | Cc1ccsc1C[C@H](C)Nc1cc[nH]c(=O)c1-c1nc2cc3c(cc2[nH]1)CN(CCN1CCC[C@H]1C)C3=O
8 | 6.60 to 7.00 | 6.60 to 7.00 | 6.00 to 6.60 | C[C@@H](Cc1cccs1)Nc1cc[nH]c(=O)c1-c1nc2cc3c(cc2[nH]1)C(=O)N(CCCN(C)C)C3
9 | < 6.00 | 6.60 to 7.00 | < 6.00 | CC(Cc1cccs1)Nc1cc[nH]c(=O)c1-c1nc2cc3c(cc2[nH]1)C(=O)N(CCCN1CCCC1)C3=O (stereo not drawn)
10 | 6.00 to 6.60 | 6.60 to 7.00 | 6.60 to 7.00 | C[C@@H](Cc1cccs1)Nc1cc[nH]c(=O)c1-c1nc2cc3c(cc2[nH]1)C(=O)N(C1CCN(CCS(C)(=O)=O)CC1)C3
11 | 6.00 to 6.60 | 7.00 to 8.00 | < 6.00 | COc1ccc(C)c(C[C@H](C)Nc2cc[nH]c(=O)c2-c2nc3cc4c(cc3[nH]2)CN(CCN2CCCC2)C4=O)c1
12 | 6.60 to 7.00 | 6.00 to 6.60 | < 6.00 | Cc1ccc(Cl)cc1C[C@H](C)Nc1cc[nH]c(=O)c1-c1nc2cc3c(cc2[nH]1)CN(CCN1CCCC1)C3=O
13 | 6.00 to 6.60 | 7.00 to 8.00 | 6.00 to 6.60 | C[C@@H](Cc1cc(F)cc(F)c1F)Nc1cc[nH]c(=O)c1-c1nc2cc3c(cc2[nH]1)CN(CCN1CCCC1)C3=O [drawing 327]
14 | 6.00 to 6.60 | 7.00 to 8.00 | < 6.00 | Cc1cc(F)ccc1C[C@H](C)Nc1cc[nH]c(=O)c1-c1nc2cc3c(cc2[nH]1)C(=O)N(CCN1CCCC1)C3
15 | 6.00 to 6.60 | 6.60 to 7.00 | 6.00 to 6.60 | C[C@H](Nc1cc[nH]c(=O)c1-c1nc2cc3c(cc2[nH]1)C(=O)N(CCCN1CCCC1)C3)[C@H](O)c1ccccc1
16 | 6.60 to 7.00 | 6.60 to 7.00 | 6.00 to 6.60 | CCS(=O)(=O)CCN1CCC(N2Cc3cc4nc(-c5c(N[C@@H](C)Cc6cccs6)cc[nH]c5=O)[nH]c4cc3C2=O)CC1
17 | 6.60 to 7.00 | > 8.00 | 6.60 to 7.00 | Cc1ccc(F)cc1C[C@H](C)Nc1cc[nH]c(=O)c1-c1nc2c(C)c3c(cc2[nH]1)CN(CCN1CCCC1)C3=O [drawing 321]
18 | < 6.00 | < 6.00 | < 6.00 | CC(Cc1cccs1)N(C)c1cc[nH]c(=O)c1-c1nc2cc3c(cc2[nH]1)C(=O)N(CCCN1CCCC1)C3 (stereo not drawn)
19 | 6.60 to 7.00 | 6.00 to 6.60 | < 6.00 | C[C@@H](Cc1ccccc1Cl)Nc1cc[nH]c(=O)c1-c1nc2cc3c(cc2[nH]1)CN(CCN1CCCC1)C3=O
20 | < 6.00 | < 6.00 | < 6.00 | C[C@H](Cc1cccs1)Nc1cc[nH]c(=O)c1-c1nc2c(Cl)c3c(cc2[nH]1)C(=O)N(C1CCN(C)CC1)C3=O
